Biological target: T1, ERR1 (also known as ERR-α or ERR-1) (Homo sapiens, UniProt P11474)
T1 sequence (P11474 193-421 limits assumed): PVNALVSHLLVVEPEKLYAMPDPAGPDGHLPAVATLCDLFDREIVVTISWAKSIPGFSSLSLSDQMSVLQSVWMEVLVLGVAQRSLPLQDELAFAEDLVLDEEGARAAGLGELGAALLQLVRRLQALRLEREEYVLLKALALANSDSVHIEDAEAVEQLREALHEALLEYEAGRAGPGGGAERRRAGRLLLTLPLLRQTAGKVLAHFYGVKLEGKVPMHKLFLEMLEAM
Assay: TR-FRET assay (disruption of co-activator peptide binding)
Assay type: biochemical
Details: 6His-tagged ERR1LBD, GST-hSRC2 co-activator peptide; average of 3 independent experiments
Method: Time-Resolved Fluorescence Resonance Energy Transfer (TR-FRET) experiments were performed to examine the functional response of ERR1 (also known as ERR-α or ERR-1) ligands. The TR-FRET assay described herein relied on the conformation of ERR1 for binding to a co-activator peptide: when a test compound binds to ERR1 and alters its conformation, it can disrupt the binding of the co-activator peptide. The components of this homogeneous secondary assay included: the ^6His-tagged-ERR1LBD, a GST-labeled-hSRC2 co-activator polypeptide and a fluorescent donor/acceptor pair from CIS bio international htrf/bioassays (Bedford, Mass.) using both an α-GST Europium Cryptate (Eu) label and an α^6His-XL665 (allophycocyanin) fluorophore.
For TR-FRET measurements, the reaction was buffered in 25 mM Tris pH 8, 2.5 mM Hepes, 20 mM KCl, 1 mM DTT, and 0.05 mg/mL BSA (-lipids). The final concentrations of reagents were 6 nM of ERR1LBD, 6 nM GST-SRC-2 peptide, 30 nM Eu cryptate, and 7.5 nM XL665. Reactions were allowed to reach equilibrium at 25° C. for 4-18 hours before collecting data on the Analyst from LJL Biosystems (Molecular Devices Sunnyvale, Calif.). As a time-resolved method, the samples were excited at […] and emission was collected for 1 ms at both 615 and 665 nm with delays of 400 and 75 μs, respectively. Dose response curves were fitted using a hyperbolic equation and the data reported is the average of 3 independent experiments.

| Structure (SMILES) | EC50 |
| --- | --- |
| CON(C)C1=NC(=O)/C(=C/c2ccc3c(cnn3Cc3ccc(Cl)cc3C(F)(F)F)c2)S1 [Compound 21, 5-[1-(4-Chloro-2-trifluoromethyl-benzyl)-1H-indazol-5-ylmethylene]-2-(methoxy-methyl-amino)-thiazol-4-one] | 24 nM |
| CN(CC(O)CO)C1=NC(=O)/C(=C/c2ccc3c(cnn3Cc3ncc(C(F)(F)F)cc3Cl)c2)S1 (stereo not shown) [Compound 11, 5-[1-(3-Chloro-5-trifluoromethyl-pyridin-2-ylmethyl)-1H-indazol-5-ylmethylene]-2-[(2,3-dihydroxy-propyl)-methyl-amino]-thiazol-4-one] | 1600 nM |
| CNCC(O)CN(C)C1=NC(=O)/C(=C/c2ccc3c(cnn3Cc3ccc(Cl)cc3C(F)(F)F)c2)S1 (stereo not shown) [Compound 49, 5-[1-(4-Chloro-2-trifluoromethyl-benzyl)-1H-indazol-5-ylmethylene]-2-[(2-hydroxy-3-methylamino-propyl)-methyl-amino]-thiazol-4-one] | 41 nM |
| CN(CCC#N)C1=NC(=O)/C(=C/c2ccc3c(cnn3Cc3ccc(Cl)cc3C(F)(F)F)c2)S1 [Compound 38, 3-({5-[1-(4-Chloro-2-trifluoromethyl-benzyl)-1H-indazol-5-ylmethylene]-4-oxo-4,5-dihydro-thiazol-2-yl}-methyl-amino)-propionitrile] | 26 nM |
| CN1CCC(N(C)C2=NC(=O)/C(=C/c3ccc4c(cnn4Cc4ccc(C(F)(F)F)cc4C(F)(F)F)c3)S2)C1 (stereo not shown) [Compound 29, 5-[1-(2,4-Bis-trifluoromethyl-benzyl)-1H-indazol-5-ylmethylene]-2-[methyl-(1-methyl-pyrrolidin-3-yl)-amino]-thiazol-4-one] | 67 nM |
| CCOC(=O)N1CCC(N(C)C2=NC(=O)/C(=C/c3ccc4c(cnn4Cc4ccc(Cl)cc4C(F)(F)F)c3)S2)CC1 [Compound 37, 4-({5-[1-(4-Chloro-2-trifluoromethyl-benzyl)-1H-indazol-5-ylmethylene]-4-oxo-4,5-dihydro-thiazol-2-yl}-methyl-amino)-piperidine-1-carboxylic acid ethyl ester] | 69 nM |
| CN(C)CCN(C)C1=NC(=O)/C(=C/c2ccc3c(cnn3Cc3ccc(S(C)(=O)=O)cc3Cl)c2)S1 [Compound 7, 5-[1-(2-Chloro-4-methanesulfonyl-benzyl)-1H-indazol-5-ylmethylene]-2-[(2-dimethylamino-ethyl)-methyl-amino]-thiazol-4-one] | 830 nM |
| CN(C1=NC(=O)/C(=C/c2ccc3c(cnn3Cc3ccc(Cl)cc3C(F)(F)F)c2)S1)C1CNC1 [Compound 48, 2-(Azetidin-3-yl-methyl-amino)-5-[1-(4-chloro-2-trifluoromethyl-benzyl)-1H-indazol-5-ylmethylene]-thiazol-4-one] | 43 nM |
| CN(CC(O)CN)C1=NC(=O)/C(=C/c2ccc3c(cnn3Cc3ccc(Cl)cc3C(F)(F)F)c2)S1 (stereo not shown) [Compound 45, 2-[(3-Amino-2-hydroxy-propyl)-methyl-amino]-5-[1-(4-chloro-2-trifluoromethyl-benzyl)-1H-indazol-5-ylmethylene]-thiazol-4-one] | 120 nM |
| CN(CC(=O)O)C1=NC(=O)/C(=C/c2ccc3c(cnn3Cc3ccc(C(C)(C)O)cc3C(F)(F)F)c2)S1 [Compound 61, [(5-{1-[4-(1-Hydroxy-1-methyl-ethyl)-2-trifluoromethyl-benzyl]-1H-indazol-5-ylmethylene}-4-oxo-4,5-dihydro-thiazol-2-yl)-methyl-amino]-acetic acid] | 1200 nM |
| CN(C1=NC(=O)/C(=C/c2ccc3c(cnn3Cc3ccc(C(F)(F)F)cc3C(F)(F)F)c2)S1)C1CCNC1 (stereo not shown) [Compound 28, 5-[1-(2,4-Bis-trifluoromethyl-benzyl)-1H-indazol-5-ylmethylene]-2-(methyl-pyrrolidin-3-yl-amino)-thiazol-4-one] | 30 nM |

These reach a lower EC50. Values come first.

| EC50 | Structure (SMILES) |
| --- | --- |
| 10 nM | O=C1N=C(N(CCO)CCO)S/C1=C\c1ccc2c(cnn2Cc2ccc(Cl)cc2C(F)(F)F)c1 [Compound 4, 2-[Bis-(2-hydroxy-ethyl)-amino]-5-[1-(4-chloro-2-trifluoromethyl-benzyl)-1H-indazol-5-ylmethylene]-thiazol-4-one] |
| 13 nM | CN(CCCn1cccn1)C1=NC(=O)/C(=C/c2ccc3c(cnn3Cc3ccc(Cl)cc3C(F)(F)F)c2)S1 [Compound 33, 5-[1-(4-Chloro-2-trifluoromethyl-benzyl)-1H-indazol-5-ylmethylene]-2-[methyl-(3-pyrazol-1-yl-propyl)-amino]-thiazol-4-one] |
| 11 nM | CN(C1=NC(=O)/C(=C/c2ccc3c(cnn3Cc3ccc(Cl)cc3C(F)(F)F)c2)S1)C1CCN(CCF)CC1 [Compound 25, 5-[1-(4-Chloro-2-trifluoromethyl-benzyl)-1H-indazol-5-ylmethylene]-2-{[1-(2-fluoro-ethyl)-piperidin-4-yl]-methyl-amino}-thiazol-4-one] |
| 15 nM | CCN(CC)CCN(C)C1=NC(=O)/C(=C/c2ccc3c(cnn3Cc3ccc(Cl)cc3C(F)(F)F)c2)S1 [Compound 32, 5-[1-(4-Chloro-2-trifluoromethyl-benzyl)-1H-indazol-5-ylmethylene]-2-[(2-diethylamino-ethyl)-methyl-amino]-thiazol-4-one] |
| 9 nM | CN1CCN(CCN(C)C2=NC(=O)/C(=C/c3ccc4c(cnn4Cc4ccc(Cl)cc4C(F)(F)F)c3)S2)CC1 [Compound 23, 5-[1-(4-Chloro-2-trifluoromethyl-benzyl)-1H-indazol-5-ylmethylene]-2-{methyl-[2-(4-methyl-piperazin-1-yl)-ethyl]-amino}-thiazol-4-one] |
| 13 nM | CN(C1=NC(=O)/C(=C/c2ccc3c(cnn3Cc3ccc(Cl)cc3C(F)(F)F)c2)S1)[C@H]1CCN(CC(N)=O)C[C@H]1F [Compound 55, 2-[(3R,4S)-4-{[-5-({1-[4-Chloro-2-(trifluoromethyl)benzyl]-1H-indazol-5-yl}methylidene)-4-oxo-4,5-dihydro-1,3-thiazol-2-yl](methyl)amino}-3-fluoropiperidin-1-yl]acetamide] |
| 9 nM | COCCN1CCC(N(C)C2=NC(=O)/C(=C/c3ccc4c(cnn4Cc4ccc(Cl)cc4C(F)(F)F)c3)S2)CC1 [Compound 24, 5-[1-(4-Chloro-2-trifluoromethyl-benzyl)-1H-indazol-5-ylmethylene]-2-{[1-(2-methoxy-ethyl)-piperidin-4-yl]-methyl-amino}-thiazol-4-one] |
| 17 nM | CN(CC(=O)O)C1=NC(=O)/C(=C/c2ccc3c(cnn3Cc3ccc(O)cc3C(F)(F)F)c2)S1 [Compound 62, ({5-[1-(4-Hydroxy-2-trifluoromethyl-benzyl)-1H-indazol-5-ylmethylene]-4-oxo-4,5-dihydro-thiazol-2-yl}-methyl-amino)-acetic acid] |
| 15 nM | CN(C1=NC(=O)/C(=C/c2ccc3c(cnn3Cc3ccc(C(F)(F)F)cc3C(F)(F)F)c2)S1)[C@@H]1CCN(CC(N)=O)C1 [Compound 56, 2-[(3R)-3-{[5-({1-[2,4-Bis(trifluoromethyl)benzyl]-1H-indazol-5-yl}methylidene)-4-oxo-4,5-dihydro-1,3-thiazol-2-yl](methyl)amino}pyrrolidin-1-yl]acetamide] |
| 8.1 nM | CN1CCC(N(C)C2=NC(=O)/C(=C/c3ccc4c(cnn4Cc4ccc(Cl)cc4C(F)(F)F)c3)S2)CC1 [Compound 19, 5-[1-(4-Chloro-2-trifluoromethyl-benzyl)-1H-indazol-5-ylmethylene]-2-[methyl-(1-methyl-piperidin-4-yl)-amino]-thiazol-4-one] |
| 23 nM | CN(CC(O)CN1CCCC1)C1=NC(=O)/C(=C/c2ccc3c(cnn3Cc3ccc(Cl)cc3C(F)(F)F)c2)S1 (stereo not shown) [Compound 50, 5-[1-(4-Chloro-2-trifluoromethyl-benzyl)-1H-indazol-5-ylmethylene]-2-[(2-hydroxy-3-pyrrolidin-1-yl-propyl)-methyl-amino]-thiazol-4-one] |
| 21 nM | CN(CC1(CO)CC1)C1=NC(=O)/C(=C/c2ccc3c(cnn3Cc3ccc(Cl)cc3C(F)(F)F)c2)S1 [Compound 36, 5-[1-(4-Chloro-2-trifluoromethyl-benzyl)-1H-indazol-5-ylmethylene]-2-[(1-hydroxymethyl-cyclopropylmethyl)-methyl-amino]-thiazol-4-one] |
| 3.6 nM | CN(CC(O)CO)C1=NC(=O)/C(=C/c2ccc3c(cnn3Cc3ccc(Cl)cc3C(F)(F)F)c2)S1 (stereo not shown) [Compound 6, 5-[1-(4-Chloro-2-trifluoromethyl-benzyl)-1H-indazol-5-ylmethylene]-2-[(2,3-dihydroxy-propyl)-methyl-amino]-thiazol-4-one] |
| 13 nM | CN(CCN1CCCC1)C1=NC(=O)/C(=C/c2ccc3c(cnn3Cc3ccc(Cl)cc3C(F)(F)F)c2)S1 [Compound 18, 5-[1-(4-Chloro-2-trifluoromethyl-benzyl)-1H-indazol-5-ylmethylene]-2-[methyl-(2-pyrrolidin-1-yl-ethyl)amino]-thiazol-4-one] |
